Laboratory results as given in US12685725B2, “Pridopidine for the treatment of mitochondrial-associated diseases and disorders and endoplasmic reticulum (ER) stress” (PRILENIA NEUROTHERAPEUTICS LTD., priority 2019, dated 2026).

Key:
[1] = tested on: HD-iPSC-derived neural stem cells (HD-NSCs)
Procedure: Neural induction occurred between day 0 and days 12-15. From day 0 to day 5, cells were maintained in iPSC medium without FGF2 and incubated with 5 μM dorsomorphin and 10 μM SB431542. Medium was changed every other day. […] Between days 12 and 15, fields full of rosettes became morphologically visible. To allow the cells to differentiate, cells were replated in Geltrex® coated 12-well plates. For detaching, 500 μl of 1×Accutase® (Thermo Fisher Sci., catalog no: A1110501) was added to the plate and incubated at 37° C. in 5% CO2, for 15-20 min. Accutase was diluted in DMEM/F12 medium pre-warmed to 37° C. Cells were collected and spun for 3 min at 200×g at room temperature, and resuspended in 200 μl of media into 12-well plates. […] Cells were incubated overnight at 37° C., 5% CO2. Cells were passaged every 2-3 days for no more than 10-12 passages.
Oxygen consumption rate (OCR) in WT and hemizygous YAC128 cortical/striatal co-cultures and NSCs was measured using Seahorse XFe-24/96 flux analyzers (Seahorse Bioscience, Billerica, MA, USA) following the manufacturer's instructions. […] Pridopidine (0.1, 1 and/or 5 μM) was added, when indicated in the graphs, 24 h before the experiment. The sensor cartridge plate was incubated with immersed sensors in a non-CO2 incubator at 37° C. for ~16 h (overnight). […] The cell medium was aspirated gently to avoid disturbing cell monolayers. […] Accordingly, mitochondrial basal respiration, maximal respiration and ATP production was automatically calculated and recorded by the Seahorse software. Data was normalized for protein levels.

[2] = tested on: mitochondrial complexes II, III and IV; details: 30 mg/kg/day oral gavage 45 days
Procedure: 1.5-month-old WT and hemizygous YAC128 mice (males and females in equal proportion) were divided into four groups. […] Mice were divided 4 animals per cage enriched in corn-husk nesting material and paper rolls, each cage representing one individual experiment, for a total of 9 animals per group. Pridopidine was dissolved in deionized sterile water. Animals were weighed every week and the volume of treatment adjusted accordingly. Mice were behaviorally tested in rotarod immediately before commencing treatment and on the day before finishing treatment. Tests were conducted blindly at a set time during the day. Mice were sacrificed 24 h after administration of the final pridopidine dose, and mitochondria isolated from the striatum.
The final homogenate was then centrifuged at 1,100×g for 2 min, at 4° C. […] The mitochondrial fraction was pelleted by centrifugation at 18,500×g for 10 min at 4° C. The pellet was then resuspended in 1 mL of mitochondria washing buffer (MWB: in mM, 250 sucrose, 5 HEPES-KOH, 0.1 EGTA, pH 7.2) and centrifuged at 10,000×g for 5 min at 4° C. Mitochondrial pellet was again resuspended in a small volume of ice-cold MWB, to create a concentrated mitochondria solution, and kept on ice for further analysis for a maximum of 2 hours. Protein content of isolated mitochondria was quantified by Bio-Rad assay (Bio-Rad, catalog no. 5000006).
After centrifugation, the volume was adjusted to 450 μL and the Seahorse plate was equilibrated in a humidified C02-free incubator at 37° C. for 10-12 min.

[3] = biological target: S1R in STHdh^Q7/7 cells (Mus musculus, UniProt O55242); details: 20 h; P (150 μM vs. 0)<0.05
Procedure: (§1) Transfections of HEK 293 cells were carried out according to the calcium phosphate method. STHdh^Q7/7 cells are a murine striatal cell line with a stable knock-in of the full-length wild type (WT) human Htt containing a polyglutamine stretch of 7 glutamines (Trettel et al. 2000). […] No cell line used is listed as a commonly misidentified cell line. Cell lines were not authenticated. To reduce any risk of cross-contamination they were grown for a limited number of passages. Transient transfections of NIH 3T3 and STHdh^Q7/7 cells were performed using an MP-100 Microporator (Digital Bio) or ViaFect™ Transfection Reagent (Cat.No. E4981) (Promega), according to the manufacturer's protocols.
(§2) Cells were lysed in PBS containing 1% Triton X-100, 0.5% sodium deoxycholate with protease inhibitors and centrifuged to pellet insoluble aggregates, debris and nuclei. Phosphatase inhibitor cocktail 2 and 3 and 10 mM […] phosphate were added to the lysis buffer to inhibit phosphatases for detection of phosphorylated proteins. Supernatants were separated from pellets and incubated in loading buffer for 5 min at 100° C., pellets were incubated for 10 min at 100° C. After SDS-PAGE and transfer to nitrocellulose membrane, blocking was done in 5% low-fat milk and 0.1% Tween-20 in PBS for 1 h. Incubation with the primary antibody was overnight at 4° C. and after three washes in 0.1% Tween-20 in PBS, incubation with the appropriate secondary antibody was for 1 h at room temperature. After washing, enhanced chemiluminescence assay was performed and the membrane was exposed and quantified in a Bio-Rad ChemiDocXRS Imaging System (Bio-Rad, Hercules, CA).
(§3) Briefly, cells grown for 24 h after transfection on coverslips in 24-well plates were fixed with 3% paraformaldehyde, followed by blocking with 50 mM glycine in PBS and normal goat IgG in PBS/2% BSA. The cells were incubated with primary antibodies for 1 h, washed and incubated for 30 min with secondary antibodies, followed by washes. Nuclei were stained with 4′,6-diamidino-2-phenylindole (Cat.No. F6057) (Sigma). Confocal microscopy was done on a Zeiss laser scanning confocal microscope (LSM 510; Carl Zeiss, Jena, Germany) as described previously. ImageJ was used to quantify fluorescence intensity in images of treated individual cells compared to untreated cells with and without Htt96Q-mCherry aggregates and to calculate Mander's coefficients for colocalization studies.

[4] = tested on: S1R in STHdh^Q7/7 cells
Procedure: as §1, §2, §3

[5] = tested on: STHdh^Q7/7 cells expressing Htt96Q-mCherry or Htt20Q-mCherry
Procedure: as §1, §3

[6] = tested on: HD-NSCs; test: cells; details: Homo sapiens, 24 h, read-out: reduction of the increase in H2O2 levels induced by complex III inhibition
Procedure: NSCs were plated at 30,000 cells/well in 96-well assay plates coated with Geltex® for 24 h at 37° C. Afterwards, NSCs were incubated for another 24 h with 1 μM pridopidine. […] MitoPY1 fluorescence was obtained with a Microplate Spectrofluorometer Gemini EM (Molecular Devices, USA) using wavelength parameters described above. Basal levels were measured for 10-15 minutes followed by exposure to 3 μM myxothiazol (mitochondrial complex III inhibitor. Sigma-Aldrich, catalog no: T5580) and measured for an additional 30 minutes. The results were calculated as RFU per 30,000 cells.

Sequence of S1R in STHdh^Q7/7 cells (Mus musculus, UniProt O55242) (O55242 whole entry): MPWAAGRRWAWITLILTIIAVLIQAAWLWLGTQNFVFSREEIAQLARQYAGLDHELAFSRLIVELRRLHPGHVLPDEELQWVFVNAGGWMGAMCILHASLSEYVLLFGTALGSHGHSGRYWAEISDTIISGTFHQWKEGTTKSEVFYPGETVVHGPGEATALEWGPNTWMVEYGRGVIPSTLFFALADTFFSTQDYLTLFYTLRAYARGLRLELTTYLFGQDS

SMILES: CCCN1CCC(c2cccc(S(C)(=O)=O)c2)CC1 [Pridopidine, 4-[3-(methylsulfonyl)phenyl]-1-propyl-piperidine]
- ATP production [1]: shows a trend towards increasing ATP production
- maximal respiration [1]: also increases
- mitochondrial basal respiration [1]: also increases mitochondrial basal
- activity of mitochondrial complex IV (OCR) ([2]; YAC128 mice): shows a similar decreasing trend
- activity of mitochondrial complex III ([2]; YAC128 mice, p=0.0084): normalizes the activity of mitochondrial complexes H and III
- activity of mitochondrial complex II ([2]; YAC128 mice, p=0.0306): normalizes the activity of mitochondrial complexes H and III
- mitochondrial complex activities ([2]; wild-type mice): does not affect mitochondrial complex activities
- Triton-insoluble levels of endogenous S1R [3]: also those of the endogenous S1R
- Triton-insoluble levels of S1R-YFP ([4]; 20 h, starting 4 h post-transfection): increases the Triton-insoluble levels of S1R-YFP
- increase of S1R-YFP levels above the levels in the untreated cells ([4]; in the presence of Htt96Q-mCherry, dose-dependent, up to 150 μM, 20 h): up to 47%
- pattern (subcellular localization) of S1R-YFP ([4]; treatment for 20 h): does not change the pattern of S1R-YFP
- H2a-GFP accumulation, of the untreated control ([5]; cells positive for mHtt (Htt96Q-mCherry) aggregates): 40%
- ER stress (H2a-GFP relative intensity), dose dependence ([5]; cells with Htt96Q-mCherry aggregates, from 0.03 to 150 μM): significantly reduces ER stress in a dose-dependent manner
- H2a-GFP levels ([5]; cells without aggregates or cells expressing Htt20Q-mCherry): does not alter H2a-GFP levels
- percent of cells that show visible Htt96Q-mCherry aggregates ([5]; expression of Htt96Q-mCherry for 24 h): unchanged
- inhibition at 1 µM [6]: ~42%
